Two substances from patent US7759083B2, “Screening method for a growth inhibitor or promoter of a vascular smooth muscle cell” (Shionogi & Co., Ltd., priority 2004, dated 2010) can be followed below.

For data set [1], the system named is vascular smooth muscle cells. Put plainly: Proliferation reaction of vascular smooth muscle cells by human TAT ([methyl 3H] thymidine uptake). The format is cell-based, rat. To be noted: serum-free; only some (TAT reactive) vascular smooth muscle cells respond. On the procedure:
Vascular smooth muscle cells were plated in a 96-well plate at a density of 2×10^3/well and cultured under the same condition as Example 1. After 3 days, the medium was changed with DMEM containing 0.05% bovine serum albumin. After culturing for one more day, the medium was changed again with new DMEM containing 0.05% bovine serum albumin and TAT was added thereto. After 20 hours from addition of TAT, 0.05 μCi/well [methyl 3H] thymidine was added thereto and the cells were cultured for 2 hours. After washing cells twice with 5% trichloroacetic acid, Super mix (PerkinElmer, Inc.) was added thereto and radioactivity derived from [methyl 3H] thymidine taken in cells was measured by Micro Beta (PerkinEimer, Inc.) (FIG. 1).

Data set [2] concerns TAT reactive rat vascular smooth muscle cell clones. Put plainly: Cell proliferation potency by TAT after GPC3 knockdown with shRNA adenovirus ([methyl 3H] thymidine uptake). To be noted: adenovirus infection at MOI=10; compared to cells infected GFPi or LacZ used as a control; FIG. 3. The format is cell-based. On the procedure: Adenovirus carrying GFPi or GPC3i was added to cells on a 10 cm laboratory dish at infectious MOI=10 to infect. The cells were moved on a 24-well plate 1 day after infection and cultured under the absence of blood serum for 24 hours. After that, thymidine taken in cells by the stimulus of TAT was measured.
Each of adenovirus inserted shRNA of Glypican 3 (GPC3) (GPC3i), adenovirus inserted shRNA of Green fluorescent protein (GFP) (GFPi) and adenovirus not inserted shRNA (LacZ) was infected to TAT reactive rat vascular smooth muscle cell clones. Cell proliferation potency by TAT was measured by uptake of [methyl 3H] thymidine according an experiment method.

Regarding thrombin-antithrombin III complex [TAT], the “proliferation of vascular smooth muscle cells” value in data set [1] is given as “proliferate some cells of vascular smooth muscle cells at very low concentration”.

As to “GPC3i: adenovirus inserted shRNA of Glypican 3 (GPC3), sequence SEQ ID: 2 (guide GAACTACACCAATGCCATGTT)”, the “cell proliferation by stimulus of TAT” value in data set [2] is “remarkably decreased”.
